For 6 compounds, mass density and refractive index results are on record in the NIST ThermoML archive (doi:10.1021/je050520f).

For series [1] the following is noted: 101.33 kPa, Liquid.
Series [2] in a line: refractive index (Na D-line) (dimensionless). The settings on record: 101.33 kPa, Liquid.

One may read the mass density as mass per unit of volume. A word on the refractive index: it is a measure of how strongly the sample bends light.

Numbers after ± are expanded uncertainties.

For the compound `NC1CCCCC1` [cyclohexylamine], the mass density in series [1] (303.15 K) is on record as 858.2 ± 0.2 kg/m3. Further, in series [2] (288.15 K, Abbe refractometer), the refractive index is recorded as 1.4624 ± 0.0005.
For the compound `CCCCCCC` [heptane], in series [1] (298.15 K), the mass density stood at 679.43 ± 0.36 kg/m3. In series [2] (298.15 K, Abbe refractometer), the refractive index was found to be 1.3853 ± 0.0003.
Consider `CCCCCCCC` [octane], for which the mass density in series [1] (298.15 K) turned out to be 698.49 ± 0.31 kg/m3. Besides, the refractive index in series [2] (298.15 K) is 1.3946 ± 0.0007.
In the case of `CCCc1ccccc1` [propylbenzene], the mass density in series [1] (298.15 K) worked out at 860.79 ± 0.28 kg/m3. The refractive index in series [2] (298.15 K, Abbe refractometer) turned out to be 1.4901 ± 0.0006.
In the case of `Cc1ccccc1` [toluene], the mass density in series [1] (293.15 K) stood at 866.78 ± 0.19 kg/m3. The refractive index in series [2] (293.15 K, Abbe refractometer) is recorded as 1.496 ± 0.0006.
With `O` [water], the refractive index in series [2] (293.15 K, Abbe refractometer) is 1.3336 ± 0.0005.
